Source: US12577231B2, “Androgen receptor PROTACS” (GlaxoSmithKline Intellectual Property Development Limited, priority 2023, dated 2026)

Biological target: T1, Androgen Receptor dual T878A/L702H mutant protein (Homo sapiens, UniProt P10275, L702H/T878A)
T1 construct: host or cells: MDA-PCa-2b
T1 sequence (P10275 1-920 L702H/T878A): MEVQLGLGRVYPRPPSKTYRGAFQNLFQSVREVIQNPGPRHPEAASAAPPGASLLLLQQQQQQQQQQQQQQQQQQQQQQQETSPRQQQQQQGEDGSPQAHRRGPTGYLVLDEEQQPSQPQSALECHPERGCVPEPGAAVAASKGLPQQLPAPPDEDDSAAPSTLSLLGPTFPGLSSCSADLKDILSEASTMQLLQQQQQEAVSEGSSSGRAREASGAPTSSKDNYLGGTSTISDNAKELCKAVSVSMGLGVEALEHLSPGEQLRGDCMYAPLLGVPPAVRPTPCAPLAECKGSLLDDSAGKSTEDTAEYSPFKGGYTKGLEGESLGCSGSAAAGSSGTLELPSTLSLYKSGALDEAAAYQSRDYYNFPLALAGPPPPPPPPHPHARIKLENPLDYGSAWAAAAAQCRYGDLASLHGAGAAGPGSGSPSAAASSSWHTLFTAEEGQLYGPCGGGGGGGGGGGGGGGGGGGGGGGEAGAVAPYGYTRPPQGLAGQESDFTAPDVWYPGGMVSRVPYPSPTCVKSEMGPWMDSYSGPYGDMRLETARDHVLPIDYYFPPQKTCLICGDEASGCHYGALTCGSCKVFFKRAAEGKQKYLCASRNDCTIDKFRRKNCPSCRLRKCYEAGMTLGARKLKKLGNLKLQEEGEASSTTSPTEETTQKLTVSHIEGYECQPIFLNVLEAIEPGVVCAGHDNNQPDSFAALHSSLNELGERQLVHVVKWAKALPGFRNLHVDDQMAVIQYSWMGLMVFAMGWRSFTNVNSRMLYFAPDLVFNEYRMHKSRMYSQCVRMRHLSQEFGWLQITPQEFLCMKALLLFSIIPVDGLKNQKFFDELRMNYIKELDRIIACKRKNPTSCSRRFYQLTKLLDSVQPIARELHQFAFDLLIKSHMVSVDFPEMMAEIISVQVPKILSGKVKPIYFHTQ
Experiment: Dual Mutant (T878A/L702H) Androgen Receptor Degradation Assay (HTRF, MDA-PCa-2b cells)
Assay type: cell-based
Settings: 18 h, 18 h incubation, read-out: mean asymptote max
Outline: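 PROTACs tested as 11-point, 3-fold dilutions on 10,000 cells for 18 h at 37 °C. Remaining AR read by HTRF (665/620 nm ratio) after lysis, normalised to DMSO-treated cells (0%) and cell-free medium (100%). Relative DC50 from 4-parameter fit inflection, absolute DC50 interpolated at 50% degradation; Dmax is maximum observed degradation.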

Dmax [%] | Structure (SMILES)
49 | CC1(C)[C@H](NC(=O)c2ccc(N3CCC(CN4CC[C@@H](n5ncc6c(N7CCC(=O)NC7=O)cccc65)[C@@H](F)C4)CC3)c(F)c2)C(C)(C)[C@H]1Oc1ccc(C#N)c2ncccc12 [Example 45, N-((1r,3r)-3-((8-Cyanoquinolin-5-yl)oxy)-2,2,4,4-tetramethylcyclobutyl)-4-(4-(((35,4R)-4-(4-(2,4-dioxotetrahydropyrimidin-1(2H)-yl)-1H-indazol-1-yl)-3-fluoropiperidin-1-yl)methyl)piperidin-1-yl)-3-fluorobenzamide]
≥ 50 | COc1c(C#N)ccc(O[C@H]2C(C)(C)[C@H](NC(=O)c3ccc(N4CCC(CN5CCC(n6ncc7c(N8CCC(=O)NC8=O)cccc76)CC5)CC4)c(F)c3)C2(C)C)c1C [Example 5, N-((1r,3r)-3-(4-Cyano-3-methoxy-2-methylphenoxy)-2,2,4,4-tetramethylcyclobutyl)-4-(4-((4-(4-(2,4-dioxotetrahydropyrimidin-1(2H)-yl)-1H-indazol-1-yl)piperidin-1-yl)methyl)piperidin-1-yl)-3-fluorobenzamide]
